Results reported in ChEMBL document CHEMBL4680348, “1,2,4-Thiadiazole acyclic nucleoside phosphonates as inhibitors of cysteine dependent enzymes cathepsin K and GSK-3β” (Bioorg Med Chem, 2021).

Columns and labels:
[1] = molecular target: Glycogen synthase kinase-3 beta (Homo sapiens, UniProt P49841); test: Inhibition of human recombinant GSK3beta using GSK3 peptide as substrate preincubated for 15 mins followed by ATP addition and measured after 90 mins by ADP-Glo kinase assay
[2] = molecular target: T1, Cathepsin K (Homo sapiens) (UniProt P43235); test: Inhibition of recombinant human Cathepsin K expressed in Pichia pastoris X-33 assessed as residual activity at 10 uM using Z-Gly-Pro-Arg-AMC as substrate preincubated for 10 mins followed by substrate addition measured after 30 mins by fluorescence based microplate reader assay; settings: time 40.0 min
T1 sequence (whole entry): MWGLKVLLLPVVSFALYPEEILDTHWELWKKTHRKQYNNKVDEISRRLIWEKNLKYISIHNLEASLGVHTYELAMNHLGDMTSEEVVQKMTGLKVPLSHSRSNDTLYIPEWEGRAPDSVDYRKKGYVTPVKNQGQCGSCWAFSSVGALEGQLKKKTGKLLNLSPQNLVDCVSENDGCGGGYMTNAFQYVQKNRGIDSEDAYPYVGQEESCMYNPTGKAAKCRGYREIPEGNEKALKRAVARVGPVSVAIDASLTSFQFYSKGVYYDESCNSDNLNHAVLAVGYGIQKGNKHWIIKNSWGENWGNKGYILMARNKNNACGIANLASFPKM

[3] = Cytotoxicity against human NHDF cells assessed as cell viability at 10 uM incubated for 72 hrs by CellTiter-Glo luminescence based assay; settings: read-out: Activity
HeLa S3 [4] = test: Cytotoxicity against human HeLa S3 cells assessed as cell viability at 100 uM incubated for 72 hrs by CellTiter-Glo luminescence based assay; assay type: functional; settings: read-out: Activity
HL-60 [5] = test: Cytotoxicity against human HL-60 cells assessed as cell viability at 100 uM incubated for 72 hrs by CellTiter-Glo luminescence based assay; assay type: functional; settings: read-out: Activity
SH-SY5Y [6] = test: Cytotoxicity against human SH-SY5Y cells assessed as cell viability at 100 uM incubated for 72 hrs by CellTiter-Glo luminescence based assay; assay type: functional; settings: read-out: Activity
HepG2 [7] = test: Cytotoxicity against human HepG2 cells assessed as cell viability at 100 uM incubated for 72 hrs by CellTiter-Glo luminescence based assay; assay type: functional; settings: read-out: Activity
[8] = Cytotoxicity against human NHDF cells assessed as cell viability at 100 uM incubated for 72 hrs by CellTiter-Glo luminescence based assay; settings: read-out: Activity
CCRF-CEM [9] = test: Cytotoxicity against human CCRF-CEM cells assessed as cell viability at 10 uM incubated for 72 hrs by CellTiter-Glo luminescence based assay; assay type: functional; settings: read-out: Activity
HL-60 [10] = test: Cytotoxicity against human HL-60 cells assessed as cell viability at 10 uM incubated for 72 hrs by CellTiter-Glo luminescence based assay; assay type: functional; settings: read-out: Activity
CCRF-CEM [11] = test: Cytotoxicity against human CCRF-CEM cells assessed as cell viability at 100 uM incubated for 72 hrs by CellTiter-Glo luminescence based assay; assay type: functional; settings: read-out: Activity
HeLa S3 [12] = test: Cytotoxicity against human HeLa S3 cells assessed as cell viability at 10 uM incubated for 72 hrs by CellTiter-Glo luminescence based assay; assay type: functional; settings: read-out: Activity
HepG2 [13] = test: Cytotoxicity against human HepG2 cells assessed as cell viability at 10 uM incubated for 72 hrs by CellTiter-Glo luminescence based assay; assay type: functional; settings: read-out: Activity
Cathepsin K = molecular target: T2, Cathepsin K (Homo sapiens, UniProt P43235); test: Inhibition of recombinant human Cathepsin K expressed in Pichia pastoris X-33 using Z-Gly-Pro-Arg-AMC as substrate preincubated for 10 mins followed by substrate addition measured after 30 mins by fluorescence based microplate reader assay
T2 sequence (P43235 whole entry): T1 sequence (whole entry)

SH-SY5Y [14] = test: Cytotoxicity against human SH-SY5Y cells assessed as cell viability at 10 uM incubated for 72 hrs by CellTiter-Glo luminescence based assay; assay type: functional; settings: read-out: Activity

Glycogen synthase kinase-3 beta, sequence (P49841 whole entry): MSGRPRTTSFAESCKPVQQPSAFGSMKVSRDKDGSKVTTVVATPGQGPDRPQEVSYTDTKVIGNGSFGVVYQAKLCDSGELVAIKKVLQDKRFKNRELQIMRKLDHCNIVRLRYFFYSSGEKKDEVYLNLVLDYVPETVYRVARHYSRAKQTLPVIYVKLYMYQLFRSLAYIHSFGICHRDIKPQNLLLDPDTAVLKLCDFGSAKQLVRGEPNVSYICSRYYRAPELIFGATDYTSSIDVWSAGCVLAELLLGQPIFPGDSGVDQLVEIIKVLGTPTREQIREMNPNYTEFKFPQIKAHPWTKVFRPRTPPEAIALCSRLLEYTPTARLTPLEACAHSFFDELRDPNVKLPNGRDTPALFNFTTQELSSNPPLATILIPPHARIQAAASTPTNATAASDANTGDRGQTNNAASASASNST

Structure (SMILES) | IC50 [1] | Activity [2] | viability at 72 h, 10 µM [3] | viability at 100 µM (HeLa S3 [4]) | viability at 100 µM (HL-60 [5]) | viability at 100 µM (SH-SY5Y [6]) | viability at 100 µM (HepG2 [7]) | viability at 72 h, 100 µM [8] | viability at 10 µM (CCRF-CEM [9]) | viability at 10 µM (HL-60 [10]) | viability at 100 µM (CCRF-CEM [11]) | viability at 10 µM (HeLa S3 [12]) | viability at 10 µM (HepG2 [13]) | IC50 (Cathepsin K) | viability at 10 µM (SH-SY5Y [14])
CC(C)OP(=O)(CO[C@H](CO)Cn1sc(NC(=O)OCC2c3ccccc3-c3ccccc32)nc1=O)OC(C)C | > 10 µM | 34.1% | 98% | 100% | 110% | 85% | 92% | 100% | 82% | 103% | 82% | 99% | 102% | 9.25 µM | 102%
O=C(/N=c1\s[nH]c(=O)n1C[C@H](O)COC(c1ccccc1)(c1ccccc1)c1ccccc1)c1ccccc1 | > 10 µM | 34.2% | 98% | 3% | 9% | 34% | 37% | 79% | 81% | 93% | 5% | 45% | 91% | 14.9 µM | 96%
CN(C)/C=N/c1nc(OC[C@H](O)COC(c2ccccc2)(c2ccccc2)c2ccccc2)ns1 | > 10 µM | 5.3% | 97% | 2% | 1% | 2% | 1% | 1% | 101% | 86% | 2% | 91% | 92% | 2.63 µM | 99%
Nc1nc(=O)[nH]s1 | > 10 µM | 16.9% | 101% | 87% | 95% | 56% | 54% | 49% | 120% | 98% | 4% | 100% | 87% | 6.34 µM | 99%
CCOC(=O)Nc1nc(=O)n(CCOCP(=O)(O)O)s1 | > 10 µM | 39.1% | 94% | 96% | 100% | 105% | 97% | 97% | 74% | 96% | 77% | 94% | 98% | 10.1 µM | 103%
CN(C)/C=N/c1nc(=O)n(C[C@H](O)COC(c2ccccc2)(c2ccccc2)c2ccccc2)s1 | > 10 µM | 28.3% | 77% | 1% | 2% | 3% | 1% | 1% | 15% | 64% | 1% | 80% | 87% | 10.1 µM | 67%
O=C(Nc1nc(=O)n(C[C@@H](CO)OCP(=O)(O)O)s1)c1ccccc1 | > 10 µM | 92.3% | 105% | 101% | 106% | 103% | 100% | 98% | 72% | 103% | 61% | 97% | 101% | – | 101%
